These results are taken from PubChem BioAssay (NCI).

Each structure is given as a SMILES string. “And” between values parts separate entries of the source, which are not always exact repeats. Equal entries are not always repeated.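 Values below derive from 48-hour exposures of cells grown in 96-well plates, with endpoints linearly interpolated between the two concentrations bracketing the appropriate inhibition level. GI50 marks 50% less growth. TGI denotes the concentration required for complete inhibition of growth.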

Holding throughout (test): inhibition of tumour cell growth, NCI panel, 48 h
Assay [1] has as its system 786-0 renal.
The test system of assay [2] is KM12 colon.
Assay [3] has as its system MOLT-4 leukemia.
In assay [4] the test system is TK-10 renal.
The subject of assay [5] is BT-549 breast.
The subject of assay [6] is HT29 colon.
Assay [7] concerns DU-145 prostate.
In assay [8] the test system is HOP-92 NSCLC.
Assay [9] relates to IGROV1 ovarian.
Assay [10] has as its system SF-295 CNS.

For `COc1cc2c3c(n(CCCN4CCNCC4)c(=O)c2cc1OC)-c1cc2c(cc1C3=O)OCO2`, the GI50 is 0.0513 µM in [1]; 0.633 µM in assay [2]; 0.005 µM in [3]; 0.762 µM in assay [4]; 1.4 µM in assay [5]; 0.942 µM in assay [6]. For the same compound, the GI50 in [7] was 0.0439 µM; in assay [8], 0.041 µM; in [9] it was 2.03 µM; in assay [10], 0.0851 µM. The TGI in assay [1] was 0.429 µM; in assay [2], 2.24 µM; in [3], 0.533 µM; in [4], 2.66 µM; in [5], 7.97 µM; in assay [6] it was 29.8 µM. In addition, the TGI came to 1.02 µM in assay [7], 1.28 µM in [8], 20.7 µM in [9] and 1.93 µM in [10].

As for `C/C(CCC(=O)O)=N/Nc1ccc([N+](=O)[O-])cc1`, the GI50 in assay [1] is 4.34 µM; in assay [2] it was 0.839 µM; in assay [3], 4.27 µM; in assay [4], over 100 µM; in [5], 42.3 µM; in assay [6], over 100 µM. Also, the GI50 in assay [7] was over 100 µM; in [8], over 100 µM; in [9], over 100 µM; in assay [10] it was 2.36 µM. For the same compound, the TGI in [1], in assay [2], in assay [3], in assay [4], in assay [5] and in assay [6] was over 100 µM each time. Further, the TGI in assay [7], in [8], in assay [9] and in [10] was over 100 µM in each case.

For the compound `Cn1cc(C2=C(c3c4n(c5ccccc35)CCNC4)C(=O)NC2=O)c2ccccc21`, the GI50 in assay [1] is 14.8 µM; in assay [2] it was 8.63 µM; in assay [3], 11 µM; in assay [4], 11.3 µM; in assay [5] it was 16.7 µM; in assay [6] it was 5.2 µM. Also, the GI50 in assay [7] was 12.6 µM; in assay [8], 11.5 µM; in [9], over 10 µM; in [10] it was 5.69 µM. Further, the TGI in assay [1], in [2], in assay [3], in assay [4], in [5] and in [6] was over 25 µM in each case. Besides, the TGI in assay [7] was over 25 µM; in assay [8] it was over 25 µM; in [9] it was over 21.5 µM; in assay [10], over 25 µM.

For the compound `O=C(CCCn1c2c(sc3ccccc32)c(=O)n2nnc(-c3ccccc3)c12)NCCc1cnc[nH]1`, the GI50 in assay [1] is 0.594 µM; in assay [2] it was 0.593 µM; in [3], 0.815 µM; in assay [4], 2 µM; in assay [5], 6.9 µM; in [6], 0.719 µM. For the same compound, the GI50 in assay [7] is 0.833 µM; in [8] it was 6.16 µM; in assay [9] it was 0.0997 µM; in assay [10], 0.456 µM. The TGI in [1] was 1.79 µM; in [2], 3.19 µM; in assay [3], over 100 µM; in assay [4], 3.75 µM; in [5] it was 18.2 µM; in [6], 2.36 µM. Further, the TGI was 2.2 µM in assay [7], 33 µM in assay [8], 2.07 µM in [9] and 2.11 µM in assay [10].

Take `CNS(=O)(=O)OCC1OC(n2cnc3cncnc32)C(O)C1O` (stereo not given): the GI50 in assay [1], in [2], in [3], in assay [4], in [5] and in assay [6] was over 100 µM each time. Moreover, the GI50 in [7], in assay [8], in [9] and in assay [10] was over 100 µM in each case. Moreover, the TGI in assay [1], in [2], in assay [3], in assay [4], in assay [5] and in assay [6] was over 100 µM throughout. Besides, the TGI in assay [7], in assay [8], in assay [9] and in assay [10] was over 100 µM in each case.

`COC(=O)C1=COC2OC3C(C(C)O)C(=O)OC34C=CC1C24` (stereo not given): the TGI in assay [1], in assay [2], in assay [3], in assay [4], in assay [5] and in assay [6] was over 100 µM in each case. Besides, the TGI in [7], in [8], in [9] and in [10] was over 100 µM in each case.

With `Cc1ccc(F)c(NC(=O)Nc2ccc(-c3cccc4[nH]nc(N)c34)cc2)c1`, the GI50 in assay [1] is 3.58 µM and 4.22 µM; in [2] it was 1.64 µM and 1.55 µM; in [3], 3.13 µM and 3.08 µM; in [4], 3.6 µM and 2.84 µM; in assay [5] it was 2.64 µM and 3.39 µM; in assay [6], 2.46 µM and 2.86 µM. Further, the GI50 in assay [7] was 3.68 µM and 3.37 µM; in assay [8], 3.67 µM and 3.17 µM; in [9] it was 4 µM and 3.13 µM; in assay [10], 2.55 µM and 3.48 µM. In addition, the TGI in [1] was 18 µM and > 10 µM; in assay [2] it was 4.94 µM and 5.79 µM; in assay [3] it was over 42.9 µM; in assay [4], 14.6 µM and > 10 µM; in [5], 9.82 µM and > 10 µM; in assay [6], 6.93 µM and > 10 µM. Besides, the TGI in [7] is 13.1 µM and > 10 µM; in [8], 14.4 µM and 8.25 µM; in [9], 15.8 µM and > 10 µM; in assay [10], 12.3 µM and > 10 µM.

Consider `COc1ccc(-c2cc(/C=C3\C(=O)Nc4cc(Cl)ccc43)[nH]n2)cc1`, for which the GI50 was 9.71 µM in assay [1]; 3.46 µM in assay [2]; 4.17 µM in assay [3]; 7.74 µM in assay [4]; 7.02 µM in [5]; 3.32 µM in assay [6]. For the same compound, the GI50 was 3.52 µM in [7], 2.33 µM in assay [8], 4.76 µM in assay [9] and 2.68 µM in assay [10]. The TGI was over 100 µM in [1]; 56.1 µM in assay [2]; over 100 µM in assay [3]; over 100 µM in assay [4]; 62 µM in assay [5]; 13.1 µM in [6]. The TGI in assay [7] is 21.4 µM; in assay [8] it was 56.9 µM; in [9], over 100 µM; in assay [10], 12.2 µM.
